Data set [1] concerns the target T1, rat histamine H3 receptors (Rattus norvegicus, UniProt Q9QYN8).
T1 construct: Frozen rat frontal brain or frozen human post-mortem frontal brain is homogenized; from tissue; host or cells: rat frontal brain membranes
In words: Rat H3 binding, 3H-N-methylhistamine displacement in frontal brain membranes. Particulars: radioligand 1 nM 3H-N-methylhistamine, 1-hour incubation. As for the experimental part:
The in vitro affinity of the compounds in the present invention at the rat or human histamine H3 receptors can be determined according to the following procedure. Frozen rat frontal brain or frozen human post-mortem frontal brain is homogenized in 20 volumes of cold 50 mM Tris.HCl containing 2 mM MgCl2 (pH to 7.4 at 4° C.). The homogenate is then centrifuged at 45,000 G for 10 minutes. The supernatant is decanted and the membrane pellet re-suspended by Polytron in cold 50 mM Tris.HCl containing 2 mM MgCl2 (pH to 7.4 at 4 degrees C.) and centrifuged again. The final pellet is re-suspended in 50 mM Tris HCl containing 2 mM MgCl2 (pH to 7.4 at 25 degrees C.) at a concentration of 12 mg/mL. Dilutions of compounds are made in 10% DMSO/50 mM Tris buffer (pH 7.4) (at 10×final concentration, so that the final DMSO concentration is 1%). Incubations are initiated by the addition of membranes (200 microliters) to 96-well V-bottom polypropylene plates containing 25 microliters of drug dilutions and 25 microliters of radioligand (1 nM final concentration ^3H-N-methylhistamine). After a 1-hour incubation, assay samples are rapidly filtered through Whatman GF/B filters and rinsed with ice-cold 50 mM Tris buffer (pH 7.4) using a Skatron cell harvester. Radioactivity is quantified using a BetaPlate scintillation counter.

The structures appear in SMILES notation.

T1 sequence (Q9QYN8 whole entry): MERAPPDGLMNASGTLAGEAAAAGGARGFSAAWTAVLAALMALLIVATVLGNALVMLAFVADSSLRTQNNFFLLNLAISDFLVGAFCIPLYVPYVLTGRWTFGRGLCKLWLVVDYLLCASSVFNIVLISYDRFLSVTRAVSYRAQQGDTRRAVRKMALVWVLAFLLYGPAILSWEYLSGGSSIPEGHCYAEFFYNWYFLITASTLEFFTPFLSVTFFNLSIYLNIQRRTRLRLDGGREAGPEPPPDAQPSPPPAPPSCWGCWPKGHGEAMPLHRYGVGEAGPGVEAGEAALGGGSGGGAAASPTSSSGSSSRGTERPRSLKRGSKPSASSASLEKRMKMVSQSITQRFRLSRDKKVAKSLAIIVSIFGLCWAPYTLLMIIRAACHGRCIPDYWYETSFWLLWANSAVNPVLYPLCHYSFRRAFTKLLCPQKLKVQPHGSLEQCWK

On to `Cl.Cl.c1cc2c(cc1OCCN1CCCCC1)CCC(CN1CCCC1)C2` (single isomer, unassigned; (-)) [92 (−), (−)-1-[2-(6-Pyrrolidin-1-ylmethyl-5,6,7,8-tetrahydro-naphthalen-2-yloxy)-ethyl]-piperidine dihydrochloride], for which the melting point (usually the temperature, or range, at which the solid turns liquid) lay within 265.5 to 266.8 °C. Moreover, the Ki (commonly a dissociation constant, usually derived from enzyme kinetics or from competition with a known ligand) in data set [1] stood at 11.3 nM.
